The values below come from ChEMBL document CHEMBL4325924, “Discovery of Orally Bioavailable and Liver-Targeted Hypoxia-Inducible Factor Prolyl Hydroxylase (HIF-PHD) Inhibitors for the Treatment of Anemia” (ACS Med Chem Lett, 2018).

A short description of data set [1]: Volume of distribution in Wistar Han rat at 1 mg/kg, iv or 2 mg/kg, po administered via gavage by LC-MS/MS analysis. The data set is classed as ADME, organism-based. The note with it: in vivo.
Data set [2] is described as follows: Volume of distribution in Beagle dog at 0.175 mg/kg, iv or 1 mg/kg, po administered via gavage by LC-MS/MS analysis. Type of data set: ADME, organism-based, Canis lupus familiaris. The note with it: in vivo.
A short description of data set [3]: Half life in Wistar Han rat at 1 mg/kg, iv or 2 mg/kg, po administered via gavage by LC-MS/MS analysis. Type of data set: ADME, organism-based. Particulars: in vivo.
Data set [4] in a line: Plasma clearance in Wistar Han rat at 1 mg/kg, iv or 2 mg/kg, po administered via gavage by LC-MS/MS analysis. Type of data set: ADME, organism-based.
Data set [5] can be described thus: Half life in Beagle dog at 0.175 mg/kg, iv or 1 mg/kg, po administered via gavage by LC-MS/MS analysis. Type of data set: ADME, organism-based, Canis lupus familiaris. Particulars: in vivo.
Data set [6] can be described thus: Oral bioavailability in Wistar Han rat at 2 mg/kg administered via gavage by LC-MS/MS analysis. Type of data set: ADME, organism-based. Particulars: in vivo.
Data set [7] is described as follows: Plasma clearance in Beagle dog at 0.175 mg/kg, iv or 1 mg/kg, po administered via gavage by LC-MS/MS analysis. Type of data set: ADME, organism-based, Canis lupus familiaris.
The nature of data set [8]: Oral bioavailability in Beagle dog at 1 mg/kg administered via gavage by LC-MS/MS analysis. Particulars: in vivo. Type of data set: ADME, organism-based, Canis lupus familiaris.

The term half-life denotes the time in which the quantity being followed falls by half. A high value points to slow loss. What is called bioavailability is dose-corrected exposure relative to a reference, in per cent.

`O=C(O)CNC(=O)c1c(O)c2c(n(Cc3ccc(C(F)(F)F)cc3)c1=O)COC2`: the results for the Vd in data set [1] and in data set [2] were 3.1 L/kg and 5.6 L/kg, respectively. Besides, the values for the half-life in data set [3] and in data set [5] were 7.3 h and 6.2 h, respectively. Further, the clearance in data set [4] is 11 mL/min/kg; in data set [7], 17 mL/min/kg. In addition, the values for the bioavailability in data set [6] and in data set [8] were 39% and 25%, respectively.
